These results are taken from ChEMBL document CHEMBL2074129 (J Clin Invest, 1995).

Data set [1] addresses ATP-dependent translocase ABCB1 (Mus musculus, UniProt P21447). The experiment in a line: TP_TRANSPORTER: transepithelial transport (basal to apical) in mdr1a-expressing LLC-PK1 cell. The class given is functional, cell-based. The following applies: pig.
Data set [2] has as its target ATP-dependent translocase ABCB1 (Homo sapiens, UniProt P08183). As to the kind of experiment: TP_TRANSPORTER: transepithelial transport (basal to apical) in MDR1-expressing LLC-PK1 cells. The class given is functional, cell-based. Conditions: pig.

ATP-dependent translocase ABCB1 (Mus musculus, UniProt P21447), sequence (P21447 whole entry): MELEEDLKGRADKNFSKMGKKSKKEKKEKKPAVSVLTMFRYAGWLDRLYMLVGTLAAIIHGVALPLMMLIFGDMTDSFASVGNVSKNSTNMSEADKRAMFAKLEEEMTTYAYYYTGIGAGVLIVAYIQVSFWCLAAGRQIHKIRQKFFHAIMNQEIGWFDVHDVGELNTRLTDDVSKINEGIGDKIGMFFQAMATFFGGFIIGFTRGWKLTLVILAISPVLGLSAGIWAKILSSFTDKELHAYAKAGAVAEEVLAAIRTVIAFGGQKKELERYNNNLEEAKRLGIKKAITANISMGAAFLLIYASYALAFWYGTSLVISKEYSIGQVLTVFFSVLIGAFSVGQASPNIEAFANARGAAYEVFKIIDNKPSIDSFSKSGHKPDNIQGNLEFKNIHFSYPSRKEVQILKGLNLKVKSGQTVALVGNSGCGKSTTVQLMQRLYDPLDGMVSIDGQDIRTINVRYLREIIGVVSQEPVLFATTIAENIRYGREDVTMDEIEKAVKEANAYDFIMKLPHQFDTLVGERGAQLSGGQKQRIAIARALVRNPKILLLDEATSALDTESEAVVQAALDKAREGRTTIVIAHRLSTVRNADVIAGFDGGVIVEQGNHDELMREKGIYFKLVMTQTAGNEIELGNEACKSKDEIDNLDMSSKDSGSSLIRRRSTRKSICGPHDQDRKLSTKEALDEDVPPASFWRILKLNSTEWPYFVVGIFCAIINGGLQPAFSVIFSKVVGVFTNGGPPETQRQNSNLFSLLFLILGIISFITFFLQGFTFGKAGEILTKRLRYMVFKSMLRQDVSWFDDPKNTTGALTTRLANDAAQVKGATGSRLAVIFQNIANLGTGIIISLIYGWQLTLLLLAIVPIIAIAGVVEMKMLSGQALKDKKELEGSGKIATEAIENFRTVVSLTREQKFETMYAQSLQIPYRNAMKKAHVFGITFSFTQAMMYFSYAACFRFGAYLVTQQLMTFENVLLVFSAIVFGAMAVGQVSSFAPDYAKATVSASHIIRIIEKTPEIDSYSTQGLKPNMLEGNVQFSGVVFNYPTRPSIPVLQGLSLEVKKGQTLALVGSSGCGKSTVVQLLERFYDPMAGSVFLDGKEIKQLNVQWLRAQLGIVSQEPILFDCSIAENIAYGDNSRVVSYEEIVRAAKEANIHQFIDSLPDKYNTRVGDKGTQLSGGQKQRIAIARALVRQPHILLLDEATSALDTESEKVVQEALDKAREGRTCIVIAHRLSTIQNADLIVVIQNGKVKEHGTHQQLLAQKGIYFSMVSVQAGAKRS
ATP-dependent translocase ABCB1 (Homo sapiens, UniProt P08183), sequence (P08183 whole entry): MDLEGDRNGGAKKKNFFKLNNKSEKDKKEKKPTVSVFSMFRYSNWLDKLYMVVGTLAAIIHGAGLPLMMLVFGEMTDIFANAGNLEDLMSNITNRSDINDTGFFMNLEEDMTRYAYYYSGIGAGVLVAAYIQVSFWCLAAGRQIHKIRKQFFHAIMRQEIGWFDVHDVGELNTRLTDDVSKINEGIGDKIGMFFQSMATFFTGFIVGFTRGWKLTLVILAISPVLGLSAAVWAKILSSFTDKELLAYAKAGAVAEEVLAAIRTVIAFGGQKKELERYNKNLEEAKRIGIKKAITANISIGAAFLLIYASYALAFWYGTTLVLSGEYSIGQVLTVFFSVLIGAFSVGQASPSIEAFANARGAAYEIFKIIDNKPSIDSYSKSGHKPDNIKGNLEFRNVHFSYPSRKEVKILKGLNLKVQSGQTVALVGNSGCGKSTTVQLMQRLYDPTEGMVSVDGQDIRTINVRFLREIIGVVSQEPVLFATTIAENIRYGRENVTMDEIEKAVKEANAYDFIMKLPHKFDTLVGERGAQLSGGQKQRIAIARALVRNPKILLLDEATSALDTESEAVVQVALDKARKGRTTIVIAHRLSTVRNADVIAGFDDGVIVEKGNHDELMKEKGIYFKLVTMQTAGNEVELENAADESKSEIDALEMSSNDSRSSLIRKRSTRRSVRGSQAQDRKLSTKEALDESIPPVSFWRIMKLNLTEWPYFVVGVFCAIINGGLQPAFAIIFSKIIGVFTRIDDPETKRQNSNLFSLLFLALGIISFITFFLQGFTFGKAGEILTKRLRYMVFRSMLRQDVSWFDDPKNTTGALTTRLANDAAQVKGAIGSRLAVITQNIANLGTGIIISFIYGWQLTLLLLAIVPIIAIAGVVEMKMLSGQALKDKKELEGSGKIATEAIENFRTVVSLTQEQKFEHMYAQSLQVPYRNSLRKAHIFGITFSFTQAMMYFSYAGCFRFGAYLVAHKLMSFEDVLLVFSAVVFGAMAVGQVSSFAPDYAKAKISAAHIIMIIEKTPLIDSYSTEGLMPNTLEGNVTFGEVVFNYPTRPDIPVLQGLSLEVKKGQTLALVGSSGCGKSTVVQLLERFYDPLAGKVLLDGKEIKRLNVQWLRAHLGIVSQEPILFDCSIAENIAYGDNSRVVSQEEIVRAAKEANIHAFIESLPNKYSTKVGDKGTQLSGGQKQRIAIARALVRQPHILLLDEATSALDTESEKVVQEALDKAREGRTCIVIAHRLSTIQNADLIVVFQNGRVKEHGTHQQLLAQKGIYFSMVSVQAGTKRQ

Regarding `CN1CC[C@]23c4c5ccc(O)c4O[C@H]2[C@@H](O)C=C[C@H]3[C@H]1C5` [MORPHINE], in data set [1], the Activity result was “substrate [+]”. For the compound IVERMECTIN, the Activity result in data set [2] and in data set [1] was “substrate [+]” throughout. In the case of `C[C@@H]1C[C@H]2[C@@H]3CCC4=CC(=O)C=C[C@]4(C)[C@@]3(F)[C@@H](O)C[C@]2(C)[C@@]1(O)C(=O)CO` [DEXAMETHASONE], the Activity result in data set [2] and in data set [1] was “substrate [+]” each time.
